Data: paper PMC6980330 (Steroids, 2019)

Molecular target: T1, vitamin D receptor (VDR) (Homo sapiens, UniProt P11473)
T1 sequence (P11473 118-427 limits assumed): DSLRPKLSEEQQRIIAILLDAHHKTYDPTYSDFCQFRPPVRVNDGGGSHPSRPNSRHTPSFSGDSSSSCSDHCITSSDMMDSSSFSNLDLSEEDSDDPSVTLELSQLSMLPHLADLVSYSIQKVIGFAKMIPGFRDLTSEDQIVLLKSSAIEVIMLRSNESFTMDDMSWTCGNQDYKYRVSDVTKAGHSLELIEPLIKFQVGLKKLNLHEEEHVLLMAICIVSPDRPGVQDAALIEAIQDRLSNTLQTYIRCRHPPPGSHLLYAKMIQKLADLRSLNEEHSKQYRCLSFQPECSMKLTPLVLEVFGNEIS
Type: binding

C=C1CC[C@H](O)C/C1=C/C=C1\CCC[C@]2(C)[C@@H]([C@H](C)CC(=O)O)CC[C@@H]12 [compound 13, calcioic acid]
IC50: 71.2 µM
